The results in this text go back to patent publication US10624829B2, “VEGFC production promoter” (Shiseido Company, Ltd., priority 2012, dated 2020).

The subject of one series is VEGFC. Description: VEGFC-inducing activity in HaCaT cells (VEGF-C ELISA of culture supernatant, normalised to cell number). Format: cell-based, human. The following applies: aromatic final concentration 0.001% to 0.01%, 48 hours culture, ELISA of supernatant divided by alamar blue fluorescence, values only in FIG. 1. On the procedure: As is described in detail in the subsequent examples, screening for agents that induce a lymph vessel activating factor in the form of VEGFC was carried out by allowing various types of candidate aromatics to act on human epidermis-derived cultured cells in the form of HaCaT cells, quantifying VEGFC, and selecting aromatics having VEGFC-inducing activity as active ingredients by using the amount of VEGFC as an indicator of VEGFC-inducing activity.
Human-derived cultured cells in the form of HaCaT cells (German Cancer Research Center, Heidelberg, Germany) were cultured in DMEM medium (Gibco Low Glucose DMEM™, Life Technologies Inc.) containing 10% FBS (Standard Fetal Bovine Serum, Hyclone Laboratories Inc.) and disseminated in a 24-well plate to 15×10^4 cells/well. The medium was replaced with serum-free DMEM 24 hours after dissemination followed by culturing for 24 hours. […] The culture supernatant was recovered after culturing for 48 hours and the amount of VEGFC in the culture supernatant was quantified in accordance with the protocol of an ELISA kit (Quanikine® Human VEGF-C Immunoassay (R&D Systems Inc., Minneapolis, Minn.)). In addition, alamar blue (TREK Diagnostic Systems, Inc., Cleveland, US) was added to the cells after recovering the culture supernatant followed by measuring the number of cells based on their fluorescence intensity (Ex: 544 nm, Em: 590 nm). […]
In general terms: An ELISA detects its analyte on a solid surface through an enzyme-linked reagent.

The test system of another series is HaCaT cells. Description: Cytotoxicity / cell number by alamar blue fluorescence in HaCaT cells. The following applies: aromatic final concentration 0.001% to 0.01%, 48 hours, alamar blue (Ex: 544 nm, Em: 590 nm). Format: cell-based, human. The procedure: Human-derived cultured cells in the form of HaCaT cells (German Cancer Research Center, Heidelberg, Germany) were cultured in DMEM medium (Gibco Low Glucose DMEM™, Life Technologies Inc.) containing 10% FBS (Standard Fetal Bovine Serum, Hyclone Laboratories Inc.) and disseminated in a 24-well plate to 15×10^4 cells/well. The medium was replaced with serum-free DMEM 24 hours after dissemination followed by culturing for 24 hours. Subsequently, each aromatic dissolved in ethanol was added (aromatic final concentration: 0.001% to 0.01%). Ethanol was used as a control. The culture supernatant was recovered after culturing for 48 hours and the amount of VEGFC in the culture supernatant was quantified in accordance with the protocol of an ELISA kit (Quanikine® Human VEGF-C Immunoassay (R&D Systems Inc., Minneapolis, Minn.)). In addition, alamar blue (TREK Diagnostic Systems, Inc., Cleveland, US) was added to the cells after recovering the culture supernatant followed by measuring the number of cells based on their fluorescence intensity (Ex: 544 nm, Em: 590 nm). The amount of VEGFC in the supernatant was divided by fluorescence intensity, and the relative VEGFC-inducing activity per cell based on a value of 100 for the control (ethanol) is shown in FIG. 1.

Regarding `CC(=O)OCCC(C)CCC=C(C)C` (stereo not shown) [citronellyl acetate, Citronellyl acetate], the “relative VEGFC-inducing activity per cell based on a value of 100 for the control (ethanol)” value with VEGFC is on record as “demonstrated VEGFC-inducing activity”. Further, in the series on HaCaT cells, the cytotoxicity result is “without demonstrating cytotoxicity”.
On to `CC(C)=CC1CC(C)CCO1` (stereo not shown) [rose oxide, Rose oxide], for which, in the series on VEGFC, the “relative VEGFC-inducing activity per cell based on a value of 100 for the control (ethanol)” value is given as “demonstrated VEGFC-inducing activity”. Also, the cytotoxicity entry in the series on HaCaT cells is “without demonstrating cytotoxicity”.
